In PubChem BioAssay (NCI):
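Exposure lasted 48 hours, with cells grown in 96-well plates and compounds tested at five concentrations. Definition used: TGI = concentration required for complete inhibition of growth.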

Legend:
Assay in all cases: NCI anticancer screen, dose series, 48 h
[1] = test system: DMS 114 small cell lung
[2] = test system: SR leukemia
[3] = test system: SNB-75 CNS
[4] = test system: NCI-H23 lung
[5] = test system: COLO 205 colon
[6] = test system: NCI-H460 lung
[7] = test system: LOX IMVI melanoma
[8] = test system: IGROV1 ovarian
[9] = test system: M14 melanoma
[10] = test system: SK-MEL-5 melanoma
[11] = test system: HCT-15 colon
[12] = test system: OVCAR-8 ovarian
[13] = test system: HOP-92 NSCLC
[14] = test system: UACC-257 melanoma
[15] = test system: 786-0 renal
[16] = test system: M19-MEL melanoma
[17] = test system: A498 renal
[18] = test system: A549 NSCLC
[19] = test system: SNB-78 CNS
[20] = test system: HL-60(TB) leukemia
[21] = test system: SK-OV-3 ovarian
[22] = test system: UO-31 renal
[23] = test system: MALME-3M melanoma
[24] = test system: KM12 colon
[25] = test system: SF-539 CNS
[26] = test system: XF 498 CNS
[27] = test system: SK-MEL-28 melanoma
[28] = test system: TK-10 renal
[29] = test system: DLD-1 colon
[30] = test system: SN12C renal
[31] = test system: SF-295 CNS
[32] = test system: HOP-62 NSCLC
[33] = test system: MOLT-4 leukemia
[34] = test system: SF-268 CNS
[35] = test system: LXFL 529 NSCLC
[36] = test system: U251 CNS
[37] = test system: OVCAR-4 ovarian
[38] = test system: NCI-H226 lung
[39] = test system: NCI-H522 lung
[40] = test system: KM20L2 colon
[41] = test system: CCRF-CEM leukemia
[42] = test system: HCT-116 colon
[43] = test system: SK-MEL-2 melanoma
[44] = test system: RPMI-8226 leukemia
[45] = test system: HT29 colon
[46] = test system: DMS 273 small cell lung
[47] = test system: OVCAR-3 ovarian
[48] = test system: ACHN renal
[49] = test system: SNB-19 CNS
[50] = test system: K-562 leukemia
[51] = test system: OVCAR-5 ovarian
[52] = test system: HOP-18 NSCLC
[53] = test system: EKVX NSCLC
[54] = test system: CAKI-1 renal
[55] = test system: RXF 393 renal
[56] = test system: SW-620 colon
[57] = test system: UACC-62 melanoma

## O=C(CSc1nc(-c2ccccc2)c(-c2ccccc2)[nH]1)N/N=C/c1ccc([N+](=O)[O-])cc1
[1]
  TGI: 55.8 µM
[2]
  TGI: > 100 µM
[3]
  TGI: 47.8 µM
[4]
  TGI: 33.9 µM
[5]
  TGI: 30.7 µM
[6]
  TGI: 43.2 µM
[7]
  TGI: 30.4 µM
[8]
  TGI: 33.8 µM
[9]
  TGI: 31.1 µM
[10]
  TGI: 31.1 µM
[11]
  TGI: 28.1 µM
[12]
  TGI: 25.4 µM
[13]
  TGI: 29.3 µM
[14]
  TGI: 36 µM
[15]
  TGI: 30.5 µM
[16]
  TGI: 30.8 µM
[17]
  TGI: 29.2 µM
[18]
  TGI: 57.5 µM
[19]
  TGI: 62.5 µM
[20]
  TGI: 71.1 µM
[21]
  TGI: 35.3 µM
[22]
  TGI: 29.5 µM
[23]
  TGI: 33.3 µM
[24]
  TGI: 31.6 µM
[25]
  TGI: 29.9 µM
[26]
  TGI: 28 µM
[27]
  TGI: 31.2 µM
[28]
  TGI: 39.4 µM
[29]
  TGI: 38.5 µM
[30]
  TGI: 31.9 µM
[31]
  TGI: 36.1 µM
[32]
  TGI: 33.7 µM
[33]
  TGI: 48.5 µM
[34]
  TGI: 39.2 µM
[35]
  TGI: 38.3 µM
[36]
  TGI: 27.5 µM
[37]
  TGI: 58.8 µM
[38]
  TGI: 32.8 µM
[39]
  TGI: 28.9 µM
[40]
  TGI: 23.2 µM
[41]
  TGI: 61.3 µM
[42]
  TGI: 32.7 µM
[43]
  TGI: 26.9 µM
[44]
  TGI: 52.1 µM
[45]
  TGI: 35.8 µM
[46]
  TGI: 27.9 µM
[47]
  TGI: 30 µM
[48]
  TGI: 92.6 µM

## Cc1cc2c(=O)cc(-c3ccc(Cl)cc3Cl)oc2c(C(=O)O)c1C
[1]
  TGI: > 100 µM
[49]
  TGI: > 100 µM
[3]
  TGI: > 100 µM
[4]
  TGI: > 100 µM
[5]
  TGI: > 100 µM
[6]
  TGI: > 100 µM
[7]
  TGI: > 100 µM
[8]
  TGI: > 100 µM
[9]
  TGI: > 100 µM
[10]
  TGI: > 100 µM
[11]
  TGI: > 100 µM
[50]
  TGI: > 100 µM
[12]
  TGI: > 100 µM
[14]
  TGI: > 100 µM
[15]
  TGI: > 100 µM
[51]
  TGI: > 100 µM
[52]
  TGI: > 100 µM
[18]
  TGI: > 100 µM
[19]
  TGI: > 100 µM
[53]
  TGI: > 100 µM
[21]
  TGI: > 100 µM
[22]
  TGI: > 100 µM
[23]
  TGI: > 100 µM
[24]
  TGI: > 100 µM
[54]
  TGI: > 100 µM
[25]
  TGI: > 100 µM
[26]
  TGI: > 100 µM
[27]
  TGI: > 100 µM
[28]
  TGI: > 100 µM
[55]
  TGI: > 100 µM
[29]
  TGI: > 100 µM
[30]
  TGI: > 100 µM
[31]
  TGI: > 100 µM
[33]
  TGI: > 100 µM
[34]
  TGI: > 100 µM
[35]
  TGI: > 100 µM
[56]
  TGI: > 100 µM
[36]
  TGI: > 100 µM
[37]
  TGI: > 100 µM
[38]
  TGI: > 100 µM
[39]
  TGI: > 100 µM
[40]
  TGI: > 100 µM
[41]
  TGI: > 100 µM
[42]
  TGI: > 100 µM
[43]
  TGI: > 100 µM
[44]
  TGI: > 100 µM
[45]
  TGI: > 100 µM
[47]
  TGI: > 100 µM
[48]
  TGI: > 100 µM
[57]
  TGI: > 100 µM
